Reference: patent US20150374718A1, “Zhankuic Acid A and Analogs thereof and Their Use as an Anti-Inflammatory Agent” (National Cheng Kung University, priority 2014, published 2015)
Where two headings read alike, the source gives them in different places.

Tested on: LPS-induced TNF-α expression
Experiment: LPS-induced TNF-α expression in murine peritoneal macrophages (ELISA)
Type: cell-based
Settings: Mus musculus, Peritoneal macrophage
Description: C57BL/6 mice were injected intraperitoneally with 3% thioglycollate, and their peritoneal macrophages were collected 72 h later. Macrophages were cultured in DMEM supplemented with 10% FBS and 50 μg/mL gentamicin at 37° C. in a humidified atmosphere of 5% CO2. […] Cell lysates were subjected to SDS-PAGE for detection of COX2 and iNOS expression. The presence of nitrite (a metabolite of NO) in the culture medium was analyzed by the Griess assay (Sigma-Aldrich), as previously described (16).

[1] = 2 h, read-out: Inhibition of 2 h-TNF-α (%)
[2] = 4 h, read-out: Inhibition of 4 h-TNF-α (%)

| SMILES | inhibition at 10 µM [1] | inhibition at 10 µM [2] |
| --- | --- | --- |
| C=C(CCC(C)C1CCC2C3=C(C(=O)C[C@@]21C)[C@@]1(C)CCC(=O)[C@@H](C)C1CC3=O)C(C)C(=O)O (stereo in doubt) [No. 1, Zhankuic acid A] | 42.4% | 85.6% |
| C=C(CC[C@@H](C)[C@H]1CC[C@H]2C3=C(C(=O)C[C@]12C)[C@@]1(C)CCC(=O)[C@@H](C)[C@@H]1CC3=O)C(C)C(=O)OC (stereo partly shown) [No. 2, Zhankuic acid A methyl ester] | 51.6% | 80.3% |
| C=C(CC[C@@H](C)[C@H]1CCC2C3=C(C(=O)C[C@@]21C)[C@@]1(C)CC[C@@H](O)[C@@H](C)C1CC3=O)C(C)C(=O)O (stereo partly shown) [No. 3, Zhankuic acid B] | 68.9% | 88.6% |
| C=C(CC[C@@H](C)[C@H]1CC[C@H]2C3=C(C(=O)[C@H](O)[C@]12C)[C@@]1(C)CC[C@@H](O)[C@@H](C)[C@@H]1CC3=O)C(C)C(=O)O (stereo partly shown) [No. 4, Zhankuic acid C] | 67.5% | 88.8% |
| C=C(CC[C@@H](C)[C@H]1CC[C@H]2C3=C(C(=O)[C@H](O)[C@]12C)[C@@]1(C)CC[C@@H](OC=O)[C@@H](C)[C@@H]1CC3=O)C(C)C(=O)O (stereo partly shown) [No. 5, Zhankuic acid C 3-O-formate] | 1.62% | 45.3% |
| C=C(CC[C@@H](C)[C@H]1CCC2C3=C(C(=O)C[C@@]21C)[C@@]1(C)CCC(=O)[C@@H](C)C1CC3=O)C(C)C(=O)OCC (stereo partly shown) [No. 6, Zhankuic acid D] | 67.1% | 54.8% |
| C=C(CC[C@@H](C)[C@H]1CC[C@H]2C3=C(C(=O)C[C@]12C)[C@@]1(C)CCC(=O)[C@@H](C)[C@@H]1CC3)C(C)C(=O)O (stereo partly shown) [No. 7, Antcin A] | 40.6% | 90.7% |
| C=C(CC[C@@H](C)[C@H]1CCC2C3=C(C(=O)C[C@@]21C)[C@@]1(C)CCC(=O)[C@@H](C)C1CC3)C(C)C(=O)OC (stereo partly shown) [No. 8, Antcin A methyl ester] | 19.4% | 85.2% |
| C=C(CC[C@@H](C)[C@H]1CCC2C3=C(C(=O)C[C@@]21C)[C@@]1(C)CCC(=O)[C@@H](C)C1C[C@@H]3O)C(C)C(=O)O (stereo partly shown) [No. 9, Antcin C] | 43.6% | 43.1% |
| C=C(CC[C@@H](C)[C@H]1CC[C@H]2C3=C(C(=O)C[C@]12C)[C@@]1(C)CC[C@@H](O)[C@](C)(O)[C@@H]1C[C@@H]3O)C(C)C(=O)O (stereo partly shown) [No. 10, Antcin K] | 49.4% | 88.5% |
| C=C(CC[C@@H](C)[C@H]1CC[C@H]2C3=C(C(=O)[C@H](O)[C@]12C)[C@@]1(C)CC[C@@H](OC=O)[C@@H](C)[C@@H]1CC3)C(C)C(=O)O (stereo partly shown) [No. 11, Antcin M 3-O-formate] | < 0% | 88.3% |
| C=C(CC[C@@H](C)[C@H]1CC[C@H]2C3=C(C(=O)[C@H](O)[C@]12C)[C@@]1(C)CC[C@@H](O)[C@@H](C)C1C[C@@H]3O)C(C)C(=O)O (stereo partly shown) [No. 12, Camphoratin A] | 22.8% | 29.9% |
| C=C(CC[C@@H](C)[C@H]1CC[C@H]2C3=C(C(=O)C[C@]12C)[C@@]1(C)CC[C@@H](O)[C@@H](C)C1C[C@@H]3O)C(C)C(=O)O (stereo partly shown) [No. 13, Camphoratin B] | 40.7% | 87% |
| C=C(CC[C@@H](C)[C@H]1CC[C@@]2(O)C3=C(C(=O)C[C@]12C)[C@@]1(C)CCC(=O)[C@@H](C)C1C[C@@H]3O)C(C)C(=O)O (stereo partly shown) [No. 14, Camphoratin D] | 65.8% | 81.7% |
| C=C(CC[C@@H](C)[C@H]1CCC2C3=C(C(=O)C[C@@]21C)[C@@]1(C)CC[C@@H](O)[C@@H](C)C1CC3=O)C(C)C(=O)OC (stereo partly shown) [No. 15, Camphoratin E] | 78% | 89.4% |
| C=C(CC[C@@H](C)[C@H]1CCC2C3=C(C(=O)C[C@@]21C)[C@@]1(C)CCC(=O)[C@@H](C)C1C[C@@H]3O)C(C)C(=O)OC (stereo partly shown) [No. 16, Camphoratin F] | 38.2% | 80.2% |
| C=C(CC[C@@H](C)[C@H]1CCC2C3=C(C(=O)C[C@@]21C)[C@@]1(C)CCC(=O)[C@@H](C)C1C[C@H]3O)C(C)C(=O)O (stereo partly shown) [No. 17, Camphoratin G] | 68.8% | 22.5% |
| C=C(CC[C@@H](C)[C@H]1CC[C@@H]2C3=C(C(=O)C[C@@]21C)[C@@]1(C)CCC(=O)[C@@H](C)C1CC3)C(C)C(=O)OC (stereo partly shown) [No. 19, Camphoratin J] | 73.4% | 90.2% |
| CC(=O)CC[C@@H](C)[C@H]1CCC2C3=C(C(=O)C[C@@]21C)[C@@]1(C)CCC(=O)[C@@H](C)C1CC3=O (stereo partly shown) [No. 21, Camphoratin L] | 73.9% | 30.6% |
| C=C(CC[C@@H](C)[C@H]1CCC2C3=C(C(=O)[C@H](O)[C@@]21C)[C@@]1(C)CCC(=O)[C@@H](C)C1CC3=O)C(C)C(=O)OC (stereo partly shown) [No. 22, Camphoratin N] | 58.3% | 89% |
| CC(C)[C@@H](C)/C=C/[C@@H](C)[C@H]1CC[C@@H]2[C@]1(C)CC[C@H]1[C@]23C=C[C@]2(C[C@@H](O)CC[C@]12C)OO3 [No. 25, Ergosterol peroxide] | < 0% | < 0% |
| C=C(CC[C@@H](C)[C@H]1CC[C@H]2C3=C(C(=O)C[C@]12C)[C@@]1(C)CCC(=O)[C@@H](C)[C@@H]1CC3)C(C)C(=O)OC (stereo partly drawn) [No. 26, Methyl-4α-methylergost-8,24(28)-diene-3,11-dion-26-oate] | 49.3% | < 0% |
| C=C(CC[C@@H](C)[C@H]1CC[C@H]2C3=C(C(=O)[C@H](O)[C@]12C)[C@@]1(C)CC[C@@H](O)[C@@H](C)[C@@H]1CC3=O)C(C)C(=O)OC (stereo partly shown) [No. 27, Methyl antcinate H] | 79.8% | 91.5% |
